Columns and labels:
[1] = Intestinal homogenate conversion assay; type: in vitro ADME, mice; details: 50 μg/mL; for percentage of prodrug remaining after 20 h of incubation, intestine homogenate: ex vivo
[2] = Bioconversion of prodrugs in plasma, ex vivo (human); details: 200 μg/mL; for % of prodrug remaining at 20 h, human plasma: 37 °C, ex vivo; for eAUC20m–20h in human plasma, prodrug: 20 h ex vivo incubation
[3] = In vivo plasma exposure after repetitive single oral dosing for 10 consecutive days; details: 10th dose, oral, molar equivalent of 10 mg/kg INH
[4] = Complete pharmacokinetic analysis after a single oral dose; details: for concentration at 0.33 h / concentration at 1 h / concentration at 2 h / concentration at 4 h / concentration at 6 h / concentration at 24 h: Balb/C, mouse, plasma, po, 10 mg/kg of INH (prodrugs at molar equivalent); for plasma concentration of free INH (mean) / plasma concentration of released AcINH (mean) / plasma concentration of released INA (mean) / Vd, unchanged prodrug / plasma level of AcHz formed in vivo: single oral dose; for Vd, unchanged prodrug: molar equivalent of 10 mg/kg INH; for plasma level of AcHz formed in vivo: all time points 0.083–24 h
[5] = Lipophilicity (logD) by shake flask method
[6] = Bioconversion of prodrugs in plasma, ex vivo (mice); details: 200 μg/mL; for % of prodrug remaining at 20 h, mice plasma: 37 °C, ex vivo; for eAUC20m–20h in mice plasma, prodrug: 20 h ex vivo incubation
[7] = In vivo plasma exposure after a single oral dose (RACE-PK); details: single oral dose 10 mg/kg; for plasma eAUC20m–120m (AcINH) / plasma eAUC20m–120m (INH): n=3
[8] = Aqueous stability in acidic and basic buffer (HPLC); details: post 24 h of incubation; for chemical stability, pH (3.0): percentage of parent remaining: acidic buffer; for chemical stability, pH (7.6): percentage of parent remaining: basic buffer
[9] = Aqueous solubility in Tris HCl buffer (pH 7.4), shake flask method; details: 37 °C, pH 7.4, aqueous buffer, thermodynamic from solid
[10] = Chemical stability in neat DMSO (UV spectrophotometer); details: post 24 h of incubation
[11] = Stomach homogenate conversion assay; type: in vitro ADME, mice; details: 50 μg/mL; for percentage of prodrug remaining after 20 h of incubation, stomach homogenate: ex vivo

## COC(=O)NNC(=O)c1ccncc1.Cl [prodrug 1a]
[1]
  eAUC0–20h in intestinal homogenate, prodrug: 908,764 ng·h/mL
  percentage of prodrug remaining after 20 h of incubation, intestine homogenate: 85%
[2]
  % of prodrug remaining at 20 h, human plasma: 40.1%
  eAUC20m–20h in human plasma, prodrug: 1418 ± 824 ng·h/mL
[3]
  eAUC20m–6h (AcHz): BLQ ^d
[4]
  concentration at 0.33 h: 148000 ng/mL
  concentration at 1 h: 63200 ng/mL
  concentration at 2 h: 31400 ng/mL
  concentration at 4 h: 1400 ng/mL
  concentration at 6 h: 571 ng/mL
  concentration at 24 h: 208 ng/mL
  Vd, unchanged prodrug: 0.077 ± 0.004 L/kg
  plasma level of AcHz formed in vivo: BLQ
[4]; 1 h
  plasma concentration of free INH (mean): BLQ
  plasma concentration of released AcINH (mean): BLQ
[4]; 2 h
  plasma concentration of free INH (mean): BLQ
  plasma concentration of released AcINH (mean): BLQ
[4]; 4 h
  plasma concentration of free INH (mean): BLQ
  plasma concentration of released AcINH (mean): BLQ
  plasma concentration of released INA (mean): BLQ
[4]; 6 h
  plasma concentration of free INH (mean): BLQ
  plasma concentration of released AcINH (mean): BLQ
  plasma concentration of released INA (mean): BLQ
[4]; 24 h
  plasma concentration of free INH (mean): BLQ
  plasma concentration of released AcINH (mean): BLQ
  plasma concentration of released INA (mean): BLQ
[5]
  logD: -0.2
[6]
  % of prodrug remaining at 20 h, mice plasma: 70.5%
  eAUC20m–20h in mice plasma, prodrug: 1650 ± 930 ng·h/mL
[7]
  plasma concentration of AcINH at 20 min: BLQ
  plasma concentration of in vivo released free INH at 20 min: BLQ
  plasma eAUC20m–120m (AcINH): BLQ ^d
  plasma eAUC20m–120m (INH): BLQ ^d
[8]
  chemical stability, pH (3.0): percentage of parent remaining: 100.0%
  chemical stability, pH (7.6): percentage of parent remaining: 100.0%
[9]; Tris HCl buffer
  solubility at 24 h: 213 mg/mL
[10]
  chemical stability, DMSO: percentage of parent remaining: 100.0%
[11]
  eAUC0–20h in stomach homogenate, prodrug: 412,453 ng·h/mL
  percentage of prodrug remaining after 20 h of incubation, stomach homogenate: 1%

## CCOC(=O)NNC(=O)c1ccncc1.Cl [prodrug 1b]
[2]
  % of prodrug remaining at 20 h, human plasma: 47.5%
  eAUC20m–20h in human plasma, prodrug: 1402 ± 957 ng·h/mL
[3]
  eAUC20m–6h (AcHz): BLQ ^d
[5]
  logD: -0.01
[6]
  % of prodrug remaining at 20 h, mice plasma: 13.8%
  eAUC20m–20h in mice plasma, prodrug: 1214 ± 758 ng·h/mL
[7]
  plasma concentration of AcINH at 20 min: BLQ
  plasma eAUC20m–120m (AcINH): BLQ ^d
[8]
  chemical stability, pH (7.6): percentage of parent remaining: 100.0%
[9]; Tris HCl buffer
  solubility at 24 h: 326 mg/mL
[10]
  chemical stability, DMSO: percentage of parent remaining: 100.0%

## CCCOC(=O)NNC(=O)c1ccncc1.Cl [prodrug 1c]
[2]
  eAUC20m–20h in human plasma, prodrug: 860 ± 131 ng·h/mL
[3]
  eAUC20m–6h (AcHz): BLQ ^d
[5]
  logD: 0.2
[6]
  eAUC20m–20h in mice plasma, prodrug: 551 ± 81 ng·h/mL
[7]
  plasma concentration of AcINH at 20 min: BLQ
  plasma concentration of in vivo released free INH at 20 min: BLQ
  plasma eAUC20m–120m (AcINH): BLQ ^d
[7]; 10 mg/kg
  plasma eAUC20m–120m (INH): BLQ and BLQ ^d
[8]
  chemical stability, pH (7.6): percentage of parent remaining: 100.0%
[9]; Tris HCl buffer
  solubility at 24 h: 86 mg/mL
[10]
  chemical stability, DMSO: percentage of parent remaining: 100.0%

## CCCCOC(=O)NNC(=O)c1ccncc1.Cl [prodrug 1e]
[2]
  eAUC20m–20h in human plasma, prodrug: 640 ± 116 ng·h/mL
[3]
  eAUC20m–6h (AcHz): BLQ ^d
[5]
  logD: 0.8
[6]
  eAUC20m–20h in mice plasma, prodrug: 180 ± 36 ng·h/mL
[8]
  chemical stability, pH (3.0): percentage of parent remaining: 100.0%
  chemical stability, pH (7.6): percentage of parent remaining: 100.0%
[9]; Tris HCl buffer
  solubility at 24 h: 49.4 mg/mL
[10]
  chemical stability, DMSO: percentage of parent remaining: 100.0%

## CC(C)COC(=O)NNC(=O)c1ccncc1.Cl [prodrug 1f]
[2]
  eAUC20m–20h in human plasma, prodrug: 854 ± 615 ng·h/mL
[3]
  eAUC20m–6h (AcHz): BLQ ^d
[5]
  logD: 0.9
[6]
  % of prodrug remaining at 20 h, mice plasma: 13.2%
  eAUC20m–20h in mice plasma, prodrug: 382 ± 302 ng·h/mL
[8]
  chemical stability, pH (3.0): percentage of parent remaining: 98.17%
  chemical stability, pH (7.6): percentage of parent remaining: 100.0%
[9]; Tris HCl buffer
  solubility at 24 h: 29.3 mg/mL
[10]
  chemical stability, DMSO: percentage of parent remaining: 100.0%

## C=CCOC(=O)NNC(=O)c1ccncc1.Cl [prodrug 1g]
[2]
  % of prodrug remaining at 20 h, human plasma: significant lability and BLQ
  eAUC20m–20h in human plasma, prodrug: 530 ± 316 ng·h/mL
[3]
  eAUC20m–6h (AcHz): BLQ ^d
[5]
  logD: 0.2
[6]
  % of prodrug remaining at 20 h, mice plasma: highly labile and BLQ
  eAUC20m–20h in mice plasma, prodrug: 168 ± 91 ng·h/mL
[8]
  chemical stability, pH (3.0): percentage of parent remaining: 96.9%
  chemical stability, pH (7.6): percentage of parent remaining: 100.0%
[9]; Tris HCl buffer
  solubility at 24 h: 402 mg/mL
[10]
  chemical stability, DMSO: percentage of parent remaining: 100.0%

## Cl.O=C(NNC(=O)c1ccncc1)OCc1ccccc1 [prodrug 1h]
[1]
  eAUC0–20h in intestinal homogenate, prodrug: 761,596 ng·h/mL
  percentage of prodrug remaining after 20 h of incubation, intestine homogenate: 43%
[2]
  eAUC20m–20h in human plasma, prodrug: 465 ± 426 ng·h/mL
[3]
  eAUC20m–6h (AcHz): BLQ ^d
[4]
  concentration at 0.33 h: 6130 ng/mL
  concentration at 1 h: 433 ng/mL
  concentration at 2 h: 409 ng/mL
  concentration at 4 h: 884 ng/mL
  concentration at 6 h: 128 ng/mL
  concentration at 24 h: 120 ng/mL
  Vd, unchanged prodrug: 2.899 ± 0.3 L/kg
  plasma level of AcHz formed in vivo: BLQ
[4]; 4 h
  plasma concentration of free INH (mean): BLQ
  plasma concentration of released AcINH (mean): BLQ
  plasma concentration of released INA (mean): BLQ
[4]; 6 h
  plasma concentration of free INH (mean): BLQ
  plasma concentration of released AcINH (mean): BLQ
  plasma concentration of released INA (mean): BLQ
[4]; 24 h
  plasma concentration of free INH (mean): BLQ
  plasma concentration of released AcINH (mean): BLQ
  plasma concentration of released INA (mean): BLQ
[5]
  logD: 1.1
[6]
  eAUC20m–20h in mice plasma, prodrug: 87 ± 85 ng·h/mL
[8]
  chemical stability, pH (3.0): percentage of parent remaining: 100.0%
  chemical stability, pH (7.6): percentage of parent remaining: 100.0%
[9]; Tris HCl buffer
  solubility at 24 h: 0.4 mg/mL
[10]
  chemical stability, DMSO: percentage of parent remaining: 100.0%
[11]
  eAUC0–20h in stomach homogenate, prodrug: 691,560 ng·h/mL
  percentage of prodrug remaining after 20 h of incubation, stomach homogenate: 29%

## CCC(C)OC(=O)NNC(=O)c1ccncc1.Cl (stereo not shown) [prodrug 1i]
[2]
  % of prodrug remaining at 20 h, human plasma: 89.1%
  eAUC20m–20h in human plasma, prodrug: 2788 ± 217 ng·h/mL
[5]
  logD: 0.8
[6]
  % of prodrug remaining at 20 h, mice plasma: 63.8%
  eAUC20m–20h in mice plasma, prodrug: 1486 ± 35 ng·h/mL
[7]
  plasma concentration of AcINH at 20 min: BLQ
[7]; 10 mg/kg
  plasma eAUC20m–120m (AcINH): BLQ and below the limit of quantification and BLQ ^d
[8]
  chemical stability, pH (3.0): percentage of parent remaining: 100.0%
  chemical stability, pH (7.6): percentage of parent remaining: 98.3%
[9]; Tris HCl buffer
  solubility at 24 h: 111 mg/mL
[10]
  chemical stability, DMSO: percentage of parent remaining: 100.0%

## Cl.O=C(NNC(=O)c1ccncc1)Oc1ccccc1 [prodrug 1j]
[2]
  % of prodrug remaining at 20 h, human plasma: below the quantification limit and BLQ
  eAUC20m–20h in human plasma, prodrug: 752 ± 355 ng·h/mL
[5]
  logD: 0.9
[6]
  % of prodrug remaining at 20 h, mice plasma: 85.5%
  eAUC20m–20h in mice plasma, prodrug: 7347 ± 655 ng·h/mL
[7]
  plasma concentration of AcINH at 20 min: BLQ
  plasma eAUC20m–120m (AcINH): BLQ ^d
[8]
  chemical stability, pH (3.0): percentage of parent remaining: 94.6%
  chemical stability, pH (7.6): percentage of parent remaining: 58.2%
[9]
  solubility at 24 h: 12.4 mg/mL
[10]
  chemical stability, DMSO: percentage of parent remaining: 100.0%
